Laboratory results as given in PubChem BioAssay (NCI).
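In this assay, cells in 96-well plates receive the compound at five concentrations for 48 hours. Endpoints are linearly interpolated between the surrounding concentrations. TGI denotes the concentration required for complete inhibition of growth.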

Tests used:
Test in all cases: inhibition of tumour cell growth, NCI panel, 48 h
MCF7 breast = tested on: MCF7 breast
NCI-H460 lung = tested on: NCI-H460 lung
HOP-92 NSCLC = tested on: HOP-92 NSCLC
K-562 leukemia = tested on: K-562 leukemia
U251 CNS = tested on: U251 CNS
CCRF-CEM leukemia = tested on: CCRF-CEM leukemia
SK-MEL-28 melanoma = tested on: SK-MEL-28 melanoma
OVCAR-3 ovarian = tested on: OVCAR-3 ovarian
UACC-62 melanoma = tested on: UACC-62 melanoma
NCI/ADR-RES ovarian = tested on: NCI/ADR-RES ovarian
SN12C renal = tested on: SN12C renal
ACHN renal = tested on: ACHN renal
A549 NSCLC = tested on: A549 NSCLC
SF-295 CNS = tested on: SF-295 CNS
UACC-257 melanoma = tested on: UACC-257 melanoma
NCI-H226 lung = tested on: NCI-H226 lung
HOP-62 NSCLC = tested on: HOP-62 NSCLC
HS 578T breast = tested on: HS 578T breast
SK-OV-3 ovarian = tested on: SK-OV-3 ovarian
MDA-MB-231 breast = tested on: MDA-MB-231 breast
HCT-15 colon = tested on: HCT-15 colon
CAKI-1 renal = tested on: CAKI-1 renal
COLO 205 colon = tested on: COLO 205 colon
A498 renal = tested on: A498 renal
DU-145 prostate = tested on: DU-145 prostate
LOX IMVI melanoma = tested on: LOX IMVI melanoma
OVCAR-4 ovarian = tested on: OVCAR-4 ovarian
NCI-H23 lung = tested on: NCI-H23 lung
786-0 renal = tested on: 786-0 renal
MDA-N = tested on: MDA-N
RPMI-8226 leukemia = tested on: RPMI-8226 leukemia
T-47D breast = tested on: T-47D breast
KM12 colon = tested on: KM12 colon
MOLT-4 leukemia = tested on: MOLT-4 leukemia
MDA-MB-435 = tested on: MDA-MB-435
SW-620 colon = tested on: SW-620 colon
SNB-19 CNS = tested on: SNB-19 CNS
OVCAR-5 ovarian = tested on: OVCAR-5 ovarian
RXF 393 renal = tested on: RXF 393 renal
UO-31 renal = tested on: UO-31 renal
SR leukemia = tested on: SR leukemia
SK-MEL-5 melanoma = tested on: SK-MEL-5 melanoma
HCT-116 colon = tested on: HCT-116 colon
HT29 colon = tested on: HT29 colon
SF-539 CNS = tested on: SF-539 CNS
SNB-75 CNS = tested on: SNB-75 CNS
PC-3 prostate = tested on: PC-3 prostate
SK-MEL-2 melanoma = tested on: SK-MEL-2 melanoma
M14 melanoma = tested on: M14 melanoma
TK-10 renal = tested on: TK-10 renal
SF-268 CNS = tested on: SF-268 CNS

`Cc1cn(C2OC(CO[Si](C)(C)C(C)(C)C)/C(=C\C#N)C2O[Si](C)(C)C(C)(C)C)c(=O)[nH]c1=O` (stereo unspecified) was tested, and the TGI (MCF7 breast) was over 100 µM, the TGI (NCI-H460 lung) was over 100 µM and the TGI (HOP-92 NSCLC) was over 100 µM. It also gave a TGI (K-562 leukemia) of over 100 µM, a TGI (U251 CNS) of over 100 µM and a TGI (CCRF-CEM leukemia) of over 100 µM. The TGI (SK-MEL-28 melanoma) was over 100 µM, the TGI (OVCAR-3 ovarian) was over 100 µM and the TGI (UACC-62 melanoma) was over 100 µM. For the same molecule, the TGI (NCI/ADR-RES ovarian) was over 100 µM, the TGI (SN12C renal) was over 100 µM and the TGI (ACHN renal) was over 100 µM. The TGI (A549 NSCLC) was over 100 µM, the TGI (SF-295 CNS) was 83.5 µM and the TGI (UACC-257 melanoma) was over 100 µM. It also gave a TGI (NCI-H226 lung) of over 100 µM, a TGI (HOP-62 NSCLC) of over 100 µM and a TGI (HS 578T breast) of over 100 µM. The TGI (SK-OV-3 ovarian) was over 100 µM, the TGI (MDA-MB-231 breast) was over 100 µM and the TGI (HCT-15 colon) was over 100 µM. It also gave a TGI (CAKI-1 renal) of over 100 µM, a TGI (COLO 205 colon) of over 100 µM and a TGI (A498 renal) of over 100 µM. The TGI (DU-145 prostate) was over 100 µM, the TGI (LOX IMVI melanoma) was over 100 µM and the TGI (OVCAR-4 ovarian) was over 100 µM. It also gave a TGI (NCI-H23 lung) of over 100 µM, a TGI (786-0 renal) of over 100 µM and a TGI (MDA-N) of over 100 µM. The TGI (RPMI-8226 leukemia) was over 100 µM, the TGI (T-47D breast) was over 100 µM and the TGI (KM12 colon) was over 100 µM. For the same molecule, the TGI (MOLT-4 leukemia) was over 100 µM, the TGI (MDA-MB-435) was over 100 µM and the TGI (SW-620 colon) was over 100 µM. For the same molecule, the TGI (SNB-19 CNS) was over 100 µM, the TGI (OVCAR-5 ovarian) was over 100 µM and the TGI (RXF 393 renal) was 92 µM. The TGI (UO-31 renal) was over 100 µM, the TGI (SR leukemia) was over 100 µM and the TGI (SK-MEL-5 melanoma) was over 100 µM. It also gave a TGI (HCT-116 colon) of over 100 µM, a TGI (HT29 colon) of over 100 µM and a TGI (SF-539 CNS) of 97.1 µM. The TGI (SNB-75 CNS) was over 100 µM, the TGI (PC-3 prostate) was over 100 µM and the TGI (SK-MEL-2 melanoma) was 37.1 µM. For the same molecule, the TGI (M14 melanoma) was over 100 µM, the TGI (TK-10 renal) was over 100 µM and the TGI (SF-268 CNS) was over 100 µM.
